Assay results from patent US20020156115A1, “Insecticidal and acaricidal composition, and methods of using the same” (AGRO-KANESHO CO., LTD., priority 1999, published 2002).

What was measured:
Assay type in all cases: in vivo
[1] = tested on: two-spotted red spiders (Tetranychus telarius); assay: Acaricidal effect on two-spotted red spiders, imago-killing rate, 500 ppm leaf immersion; details: female imagoes on green bean leaf, leaf immersion about 5 seconds, concentration 500 ppm, fifth day after treatment, 25° C.
Description: (§1) Acaricidal Effect on Larvae of Two-Spotted Red Spiders (Tetranychus telarius): A stem of green bean seedling having only one primary left was placed in a test tube (capacity: 50 ml) containing water. 15 female imagoes of two-spotted red spiders were put on each leaf. One day after, the leaf having the two-spotted red spiders was immersed (about 5 seconds) in the present insecticide diluted with water, which had been prepared according to the Preparation Example, (concentration: 500 ppm, repetition: twice). They were kept in a constant-temperature room at 25° C. On the fifth day after the treatment, the female imagoes on the leaf of the green bean seedling were observed. The imago-killing rate (%) was determined on the basis of the results of the observation to obtain the results shown in Table 6.

[2] = tested on: eggs of two-spotted red spiders (Tetranychus telarius); assay: Acaricidal effect on eggs of two-spotted red spiders, ovicidal rate, 500 ppm spray; details: eggs on green bean leaf disc; spray 3.5 ml; concentration 500 ppm; 8 days after treatment
Description: Acaricidal Effect on Eggs of Two-Spotted Red Spiders (Tetranychus telarius) 5 female imagoes of two-spotted red spiders were released on a green been leaf disc (diameter: 3 cm). Then, the imagoes were left to lay eggs on the leaf disc for 20 hours and then removed therefrom. The present acaricide which had been prepared according to Preparation Example 1 was diluted with water to a predetermined concentration. 3.5 ml of the preparation thus obtained was sprayed with a rotary spraying column (Mizuho Rika) over the disc (concentration: 500 ppm, repetition: twice). 8 days after the treatment, the number of unhatched eggs was counted to determine the ovicidal rate (%).

[3] = tested on: diamond backmoth (Plutella xylostera); assay: Insecticidal effect on larvae of diamond backmoth (cabbage leaf dip); details: 500 ppm; cabbage leaf immersed 1 minute; third-instar larvae; fourth day; 25° C.
Description: Insecticidal Effect on Larvae of Diamond Backmoth (Plutella xylostera) The present insecticide prepared according to the Preparation Example was diluted with water. A piece (diameter: 6 cm) of a cabbage leaf was immersed in the diluted insecticide for 1 minute. After air drying, the piece was placed in a plastic cup (inner diameter: 7 cm). 5 third-instar larvae of diamond backmoth (Plutella xylostera) were put in the cup (1 concentration, repetition: twice). The cup was kept in a constant temperature room at 25° C. On the fourth day, the survival rate and degree of writhing of the larvae were examined. The writhing larvae were each counted to be ½.

[4] = tested on: two-spotted red spiders (Tetranychus telarius); assay: Acaricidal effect of a low concentration (12.5 ppm) on two-spotted red spiders; details: leaf immersion, female imagoes, fifth day after treatment, 25° C.
Description: as §1, with “A” for “Acaricidal Effect on Larvae of Two-Spotted Red Spiders (Tetranychus telarius): A”
Acaricidal Effect of a Low Concentration of Acaricide on Larvae of Two-Spotted Red Spiders (Tetranychus telarius)
The same tests as those of Test Example 2 were repeated except that the concentration of the acaricide was changed to 12.5 ppm.

| Structure (SMILES) | Acaricidal rate (%) [1] | Ovicidal rate (%) [2] | Killing rate [3] | acaricidal effect [4] |
| --- | --- | --- | --- | --- |
| CO/C=C(/C(=O)OC)c1c(C#Cc2cccc(C(F)(F)F)c2)c(C)nn1C [Table 1-2] | 100% | 100% | 60% |  |
| COC=C(C(=O)OC)c1c(C#Cc2ccc(C(F)(F)F)cc2)c(C)nn1C [Table 1-3, Methyl α-{1,3-dimethyl-4-(4-trifluoromethylphenylethynyl)-5-pyrazole}-β-methoxyacrylate] | 100% | 100% | 80% | 100% |
| COC=C(C(=O)OC)c1c(C#Cc2cc(C(F)(F)F)cc(C(F)(F)F)c2)c(C)nn1C [Table 1-5, Methyl α-[1,3-dimethyl-4-{3,5-bis(trifluoromethyl)phenylethynyl}-5-pyrazole]-β-methoxyacrylate] | 100% | 100% | 100% | 100% |
| CO/C=C(/C(=O)OC)c1c(C#Cc2cc(F)cc(Cl)c2)c(C)nn1C [Table 1-7] | 100% | 100% | 80% | 100% |
| CO/C=C(/C(=O)OC)c1c(C#Cc2cc(F)cc(F)c2)c(C)nn1C [Table 1-8] | 100% | 100% | 100% | 100% |
| CO/C=C(/C(=O)OC)c1c(C#Cc2ccc(Oc3ccc(C(F)(F)F)cc3)cc2)c(C)nn1C [Table 1-10] | 100% | 100% | 100% | 100% |
| CO/C=C(/C(=O)OC)c1c(C#Cc2ccc(Oc3cc(C(F)(F)F)cc(C(F)(F)F)c3)cc2)c(C)nn1C [Table 1-11] | 100% | 100% | 100% | 100% |
| CO/C=C(/C(=O)OC)c1c(C#Cc2ccc(Oc3ccc(F)cc3Cl)cc2)c(C)nn1C [Table 1-12] | 100% | 100% | 100% | 100% |
| CO/C=C(/C(=O)OC)c1c(C#Cc2ccc(Oc3ccc(C(F)(F)F)cn3)cc2)c(C)nn1C [Table 1-13] | 100% | 100% | 100% |  |
| CCc1nn(C)c(/C(=C\OC)C(=O)OC)c1C#Cc1cc(C(F)(F)F)cc(C(F)(F)F)c1 [Table 1-14] | 100% | 100% | 74% | 100% |
| CO/C=C(/C(=O)OC)c1c(C#Cc2cc(C(F)(F)F)cc(C(F)(F)F)c2)c(C(C)C)nn1C [Table 1-17] | 100% | 100% | 89% | 100% |
| CCn1nc(C)c(C#Cc2cc(C(F)(F)F)cc(C(F)(F)F)c2)c1C(=COC)C(=O)OC [Table 1-21, Methyl α-[1-ethyl-3-methyl-4-{3,5-bis(trifluoromethyl)phenylethynyl}-5-pyrazole]-β-methoxyacrylate] | 100% | 100% | 100% | 100% |
| CCn1nc(C)c(C#Cc2cc(C(F)(F)F)cc(C(F)(F)F)c2)c1/C(=C/OC)C(=O)OC [Table 1-22] | 100% | 100% | 90% | 100% |
| CO/C=C(/C(=O)OC)c1c(C#Cc2ccc(OC(F)(F)F)cc2)c(C)nn1C [Table 1-29] | 100% | 100% | 85% | 100% |
| CO/C=C(/C(=O)OC)c1c(OCc2cc(C(F)(F)F)cc(C(F)(F)F)c2)c(C)nn1C [Table 2-1] | 100% | 100% | 87% | 100% |
| CO/C=C(/C(=O)OC)c1c(OCc2cccc(Oc3ccc(C(F)(F)F)cc3)c2)c(C)nn1C [Table 2-3] | 100% | 100% | 100% |  |
| CO/C=C(/C(=O)OC)c1c(OCc2ccc(C(C)(C)C)cc2)c(C)nn1C [Table 2-4] | 100% | 100% | 70% |  |
| CO/C=C(/C(=O)OC)c1c(OCc2ccc(C(F)(F)F)cc2)c(C)nn1C [Table 2-5] | 100% | 100% | 90% |  |
| CCc1nn(C)c(/C(=N\OC)C(=O)OC)c1CON=C(C)c1ccc(C(F)(F)F)cc1 [Table 3-73] |  |  | 100% |  |
| CCc1nn(C)c(/C(=N\OC)C(=O)OC)c1CON=C(C)c1cccc(OC(F)F)c1 [Table 3-76] |  |  | 100% |  |
| CO/C=C(/C(=O)OC)c1c(CON=C(C)c2ccc(OC(F)(F)F)cc2)c(C)nn1C [Table 3-101] | 100% | 100% | 100% |  |
